ChEMBL document CHEMBL1926640, “Structure-based rational design of novel hit compounds for pyruvate dehydrogenase multienzyme complex E1 components from Escherichia coli” (Bioorg Med Chem, 2011)

Assay: Inhibition of Escherichia coli PDHc-E1 expressed in Escherichia coli TB1 using sodium pyruvate as substrate after 3 mins by 2,6-DCIP reduction assay

Row | IC50 | SMILES
1 | 6.88 µM | Cc1ncc(Cn2cc(COc3ccc([N+](=O)[O-])cc3Cl)nn2)c(N)n1
2 | 8.8 µM | Cc1ncc(Cn2cc(COc3ccc([N+](=O)[O-])cc3)nn2)c(N)n1
3 | 55.1 µM | Cc1ncc(Cn2cc(COc3ccccc3)nn2)c(N)n1
4 | 15.1 µM | Cc1ncc(Cn2cc(COc3ccc(C(=O)O)cc3)nn2)c(N)n1
